Laboratory results: publication PMC10675132, “Novel Coumarin Derivatives as Potential Urease Inhibitors for Kidney Stone Prevention and Antiulcer Therapy: From Synthesis to In Vivo Evaluation” (Pharmaceuticals, 2023)
Read-outs that look alike come from different tables or passages of the source.

Target: jack bean urease (Canavalia ensiformis, UniProt P07374)
Test: indophenol urease inhibition assay ([…] nm)
Type: biochemical

Sequence of jack bean urease (P07374 whole entry, looked up): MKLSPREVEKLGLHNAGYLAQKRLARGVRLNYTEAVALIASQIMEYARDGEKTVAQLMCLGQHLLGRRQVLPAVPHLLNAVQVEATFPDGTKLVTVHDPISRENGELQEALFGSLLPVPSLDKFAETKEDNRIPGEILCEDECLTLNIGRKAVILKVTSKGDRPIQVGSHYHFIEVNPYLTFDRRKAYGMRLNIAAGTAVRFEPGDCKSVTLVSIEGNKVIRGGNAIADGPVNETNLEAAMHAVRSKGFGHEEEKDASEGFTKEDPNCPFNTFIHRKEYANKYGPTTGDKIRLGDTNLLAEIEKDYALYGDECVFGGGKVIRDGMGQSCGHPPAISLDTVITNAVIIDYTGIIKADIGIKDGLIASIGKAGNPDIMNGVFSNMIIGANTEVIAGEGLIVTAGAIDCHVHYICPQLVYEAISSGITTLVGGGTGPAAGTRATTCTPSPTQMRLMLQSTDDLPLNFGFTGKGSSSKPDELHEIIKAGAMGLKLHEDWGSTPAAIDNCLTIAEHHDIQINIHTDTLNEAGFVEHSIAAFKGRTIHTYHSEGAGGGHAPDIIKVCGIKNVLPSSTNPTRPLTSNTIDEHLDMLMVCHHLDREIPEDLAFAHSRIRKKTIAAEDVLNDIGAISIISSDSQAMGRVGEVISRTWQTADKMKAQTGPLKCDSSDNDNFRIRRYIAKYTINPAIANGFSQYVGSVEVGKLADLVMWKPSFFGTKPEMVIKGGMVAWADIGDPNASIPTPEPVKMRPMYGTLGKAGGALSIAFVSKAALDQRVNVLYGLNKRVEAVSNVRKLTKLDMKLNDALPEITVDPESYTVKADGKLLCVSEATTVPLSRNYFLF

Cc1ccc(O)c(/C=N/c2cc(=O)oc3ccccc23)c1 [7a, (E)-4-(2-hydroxy-5-methylbenzylideneamino)-2H-chromen-2-one]
IC50: 0.112 µM

O=c1cc(/N=C/c2cccc([N+](=O)[O-])c2)c2ccccc2o1 [3a, (E)-4-(3-nitrobenzylideneamino)-2H-chromen-2-one]
IC50: 0.412 µM

O=c1cc(/N=C/c2ccc([N+](=O)[O-])cc2)c2ccccc2o1 [5a, (E)-4-(4-nitrobenzylideneamino)-2H-chromen-2-one]
IC50: 0.322 µM

NC(N)=S [Thiourea, reference compound]
IC50 (read-out: IC50 ± SEM): 0.14 µM
